The test system of this test is CEM cells HIV-1 protection, formazan growth assay. In words: NCI AIDS Antiviral Assay. The conditions noted are these: for pIC50: measured here: growth of uninfected CEM cells. Put shortly:
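Five concentrations of each compound were applied to infected and uninfected human CEM cells. Protection from HIV-1 was judged from growth measured with a soluble formazan assay.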

pEC50, pIC50: −log10 of the molar value. Activity calls are given as the source filed them.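 How the source made its calls: active means compounds giving half or more protection of infected cells from virus-caused growth loss, again on retest; inactive means the rest.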 Where a SMILES comes first, the peptide text is derived from it. The star is where a group is joined. X9 = CC(=O)NC1C(N*)OC(CO)C(O)C1O

What is called pEC50 is the negative decadic logarithm of the EC50, by convention in mol/L. The term pIC50 denotes −log10 of the IC50, conventionally taken in molar units. Read a low pIC50 as a large IC50. With `O=[N+]([O-])c1ccccc1-c1nc2nc(N3CCOCC3)nc(N3CCOCC3)n2n1`, the pEC50 was less than 4.11 and the pIC50 was 4.28.

`CN1C(=O)C2CCC(=O)N2c2cccnc21` (configuration not stated): the pEC50 is less than 3.70 and the negative-log IC50 (pIC50) was less than 3.70.

Take `COc1cc2c3c(c1)nc(C)n3C(=O)C(C)S2` (configuration not stated): the pEC50 is less than 3.70 and the negative logarithm of the IC50 (pIC50) was 4.30.

Consider `NC(=O)c1c[se]c(C2OC(COP(=O)(O)CP(=O)(O)OCC3OC(n4cnc5c(N)ncnc54)C(O)C3O)C(O)C2O)n1` (configuration not stated), for which the pEC50 is less than 4.00 and the pIC50 is 4.78.

As for `CS(=O)(=O)c1ccc(N=C/C=C/Nc2ccc(S(C)(=O)=O)cc2)cc1`, the pEC50 was less than 3.70 and the negative-log IC50 (pIC50) is less than 3.70.

`CC(=O)C(=Cc1ccc(N(C)C)cc1)C(C)=O`: the pEC50 was less than 3.25 and the pIC50 was 3.95.

In the case of `COc1cc(C)c2c(=O)c3ccccc3n(C)c2c1`, the pEC50 is 5.55 and the pIC50 is 4.52.

Take `COc1nc2ncn(C(C)=O)c2c(=O)n1C`: the result was inactive.

On to `Oc1ccc(N=C2CCC(=C(c3ccccc3)c3ccc(Nc4ccc(O)cc4)cc3)CC2)cc1`, for which the pEC50 is less than 3.70 and the pIC50 is 4.68.

Consider `OC(C#CCN1CCCC1)(c1ccccc1)c1ccc(Br)cc1.[C-]#[O+].[C-]#[O+].[C-]#[O+].[C-]#[O+].[C-]#[O+].[C-]#[O+].[Co].[Co]` (configuration not stated), for which the pEC50 was less than 3.70 and the pIC50 was 5.15.

`O=CCOCc1cc2c(cc1Br)OCO2`: the pEC50 is less than 3.70 and the pIC50 is 5.28.

For `COc1ccccc1NC1=NCC(C)S1` (configuration not stated), the pEC50 is less than 3.70 and the pIC50 is less than 3.70.

Turning to `C#CCN1CCN(C(=S)N/N=C(\C)c2ccccn2)CC1`, the pEC50 is less than 5.65 and the pIC50 was 7.14.

Turning to `CCOC(=O)c1ccc(N2N=C3C(=CC(=O)c4ccccc43)SCC2=O)cc1`, the pEC50 was less than 4.32 and the pIC50 is 4.71.

Take `O=[N+]([O-])c1ccc(NC(c2ccccc2)P(=O)(Oc2ccccc2)Oc2ccccc2)cc1` (configuration not stated): the pEC50 was less than 5.23 and the pIC50 is less than 5.23.

On to `CN1N=C(c2ccccc2)C(C(c2ccccc2[N+](=O)[O-])C2C(=O)N(C)N=C2c2ccccc2)C1=O` (configuration not stated), for which the pEC50 is less than 4.09 and the pIC50 is 4.80.

As for `CC(=O)C1=C(O)C2(O)C(=O)c3c(c(C)c4ccc(C)c(O)c4c3O)CC2C(N)C1=O` (configuration not stated), the pEC50 was less than 4.27 and the pIC50 was 5.45.

For `CCC(C)C(NC(=O)CNC(=O)C(Cc1c[nH]cn1)NC(=O)C(NC(=O)C(CS)NC(=O)C(CCC(N)=O)NC(=O)C(NC(=O)C(NC(=O)C(CO)NC(=O)C(NC(=O)C(CC(=O)NC1OC(CO)C(O)C(O)C1NC(C)=O)NC(=O)C(NC(=O)C(CS)NC(=O)C1CCCN1C(=O)CNC(=O)C(NC(=O)CN)C(C)O)C(C)O)C(C)C)C(C)O)C(C)C)C(C)O)C(=O)NC(CCCNC(=N)N)C(N)=O` (configuration not stated) (H-GTGPCTD(X9)VSTVQCTHGIR-NH2; configuration not given here), the pEC50 is less than 4.30 and the pIC50 was less than 4.30.

As to `COc1ccc(-c2c3c(n(C4OC(CO)C(O)C(O)C4O)c(=S)c2C#N)CCC3)cc1` (configuration not stated), the pEC50 was less than 3.70 and the pIC50 is 4.36.

For the compound `Cc1cnc2c(ccc3c(C)c(C)c(C)nc32)c1C.Cc1cnc2c(ccc3c(C)c(C)c(C)nc32)c1C.O=C1OC(C(O)C[O-])C(O)=C1O.[Cu+]`, the pEC50 is less than 4.60 and the negative-log IC50 (pIC50) was 5.89.

As to `Cn1c2c(c3ccccc31)CCN(CCCCN1CCc3c(n(C)c4ccccc34)C1=O)C2`, the pEC50 was less than 4.39 and the pIC50 is less than 4.39.

Consider `Cn1c2ccccc2n2c3ccccc3c(=O)c(C#N)c12`, for which the pEC50 is less than 3.70 and the pIC50 is 5.59.

As to `O=C(O)/C(=C/c1ccccc1[N+](=O)[O-])c1ccccc1`, the pEC50 was less than 3.22 and the pIC50 is 3.26.

For `O=S1c2ccccc2Sc2ccccc21`, the pEC50 is 4.12 and the pIC50 is 3.76.

With `C=C(C)CC(OC(=O)C(C)(C)C)c1ccccc1` (configuration not stated), the result was inactive.

`COc1ccc(/C(CCl)=C(\Nc2ccccc2)c2ccc(OC)c(OC)c2)cc1OC`: the pEC50 was less than 3.70 and the negative-log IC50 (pIC50) was less than 3.70.

Regarding `NCc1ccc(-c2ccc(CN)s2)s1`, the negative-log EC50 (pEC50) is less than 4.55 and the pIC50 was 4.88.

In the case of `c1ccc(N/N=C2\CC(c3ccccc3)Oc3ccccc32)cc1` (configuration not stated), the pEC50 is less than 3.70 and the pIC50 was 4.65.

With `Cn1c2ccccc2c(=O)c2[nH]c3ccccc3c21`, the pEC50 was less than 3.70 and the pIC50 was 4.44.

For the compound `CC1(C)OC(=O)C(C(N)=O)=C1/C=C1\OC(=O)c2ccccc21`, the pEC50 was less than 4.62 and the pIC50 was less than 4.62.

For `O=C(O)c1cc(N=Nc2cccc([N+](=O)[O-])c2)ccc1O`, the pEC50 is less than 3.70 and the pIC50 was 4.17.

With `O=C1c2ccccc2C(=O)N1CCCSCC(CO)SCCCN1C(=O)c2ccccc2C1=O` (configuration not stated), the pEC50 was less than 3.70 and the pIC50 was less than 3.70.

Regarding `CN(C)c1ccc(/C=C(/C#N)c2ccc(Cl)cc2)cc1`, the pEC50 was less than 4.00 and the pIC50 was 5.91.

For the compound `Cc1cc(=O)n2c(nc3cc([N+](=O)[O-])ccc32)s1`, the pEC50 is less than 3.70 and the pIC50 is 3.73.

Take `CCOC(=O)c1ccc(-c2ccc(Cl)cc2)[nH]1`: the pEC50 was less than 3.70 and the negative logarithm of the IC50 (pIC50) is 4.35.

For `Oc1ccc2c(c1)CC[N+]1=C2CCC2CCCC21` (configuration not stated), the pEC50 is less than 3.68 and the negative-log IC50 (pIC50) was less than 3.68.

`COc1ccccc1NC(=O)/C(=C\N1CCNC1=S)C(C)=O`: the pEC50 is less than 3.70 and the pIC50 is less than 3.70.

Turning to `COc1cc(Br)c(C=Nc2cccc3ccc(OS(=O)(=O)c4cccc([N+](=O)[O-])c4)cc23)cc1OC`, the result was inactive.

`Cc1ccc(S(=O)(=O)CN2C(=O)C(c3ccccc3)(c3ccccc3)C23OC(c2ccc(Cl)cc2)=CC3=O)cc1` (configuration not stated): the pEC50 is less than 3.70 and the pIC50 was less than 3.70.

Take `COc1ccc(C(c2ccc(OC)cc2)N2C(=O)CCC2C(=O)O)cc1` (configuration not stated): the pEC50 was less than 3.70 and the pIC50 is less than 3.70.

`CSc1nc2nccnc2c(=O)[nH]1`: the pEC50 is less than 2.89 and the pIC50 was less than 2.89.

For the compound `C1CN(P(N2CCOCC2)N2CCOCC2)CCO1`, the pEC50 is less than 3.06 and the negative logarithm of the IC50 (pIC50) was less than 3.06.

On to `S=C1C(=Nc2ccccc2)N(c2ccccc2)/C(=N\c2ccccn2)N1c1ccccc1`, for which the pEC50 is less than 3.70 and the pIC50 was 5.20.

Take `CC(=O)OC1CC2C(C)(C)C(=O)C=C[C@]2(C)C2CCC3(C)C(c4ccoc4)C(=O)C4OC43[C@]12C` (some centres not stated): the outcome was inactive.

On to `CC(C)(C)NC(=O)c1ccccc1[Se][Se]c1ccccc1C(=O)NC(C)(C)C`, for which the pEC50 is 4.99 and the pIC50 was 4.88.

`O=C(/C=C/c1ccc(O)c(O)c1)OCCCc1ccccc1`: the pEC50 was less than 3.70 and the pIC50 was 5.30.

As to `NC1OC(COC(=O)c2ccccc2)C(O)C(OC(=O)c2ccccc2)C1OC(=O)c1ccccc1` (configuration not stated), the pEC50 is less than 3.70 and the pIC50 was 6.03.

As for `Brc1c(C(Br)Br)ccc2ccccc12`, the pEC50 is less than 3.70 and the negative-log IC50 (pIC50) is 4.63.

For the compound `COc1ccccc1C(=O)[O][Sn]([c]1ccccc1)([c]1ccccc1)[c]1ccccc1`, the pEC50 is less than 5.70 and the negative logarithm of the IC50 (pIC50) is 6.66.

`Oc1ccccc1C=Nc1ccc(SSc2ccc(N=Cc3ccccc3O)cc2)cc1`: the pEC50 is less than 3.70 and the pIC50 was 4.56.

For the compound `CCc1nn(S(=O)(=O)c2ccc(C)cc2)c2c1CS(=O)(=O)CC2`, the pEC50 was less than 3.70 and the negative logarithm of the IC50 (pIC50) was less than 3.70.

Regarding `CC1=NN(c2ccccc2)C(=O)/C1=C\n1c(=S)[nH]c2ccccc21`, the pEC50 is less than 3.70 and the pIC50 is 4.06.

On to `CC(C)OC(=O)c1ccc(CCc2cc(O)c(Br)cc2O)cc1`, for which the pEC50 is less than 3.70 and the negative-log IC50 (pIC50) is 5.08.

For the compound `COc1ccc2c(c1)-c1c(c3ccccc3n1CCN1CCCCC1)CC2`, the pEC50 is less than 4.00 and the pIC50 was 4.51.

Take `C/C(CC(O)(C(F)(F)F)C(F)(F)F)=N\NC(N)=O`: the pEC50 is less than 3.70 and the negative logarithm of the IC50 (pIC50) was less than 3.70.

Consider `O=C1/C(=C/c2ccccc2)CN(C(=O)C(Cl)(Cl)Cl)C/C1=C\c1ccccc1`, for which the outcome was inactive.

For the compound `NCCCNCCCCNC(=O)C(O)NC(=O)CCCCCCN=C(N)N` (configuration not stated), the pEC50 was 3.54 and the pIC50 was 3.30.

As to `O=C(O)c1cc2c(ncc3c(=O)n(-c4ccccc4)[nH]c32)s1`, the pEC50 was less than 3.94 and the pIC50 was less than 3.94.

Consider `COc1cc(-c2cc(OC)c(OC)c3ccc(Br)cc23)c2cc(Br)ccc2c1OC`, for which the pEC50 is less than 3.70 and the negative logarithm of the IC50 (pIC50) is 3.99.

With `Cc1cc(Cl)ccc1NC(=O)C(=O)Cc1ccc([N+](=O)[O-])c([N+](=O)[O-])c1CC(=O)C(=O)Nc1ccc(Cl)cc1C`, the pEC50 is less than 3.51 and the pIC50 is 3.89.

As for `C[C@@H]1C(=O)c2c(O)cc3c(c2O[C@@H]1C)CCC(C)(C)O3`, the pEC50 is less than 3.70 and the pIC50 was 4.32.

As for `CS(=O)(=O)N1CC(CCl)c2ccc(S)cc21` (configuration not stated), the result was inactive.

On to `CC(C)(Oc1ccc2c(=O)cc(-c3ccccc3)oc2c1)C(=O)N1CCN(c2ccccc2)CC1`, for which the pEC50 was less than 3.70 and the pIC50 was 4.68.

Consider `O=c1c2cc3c(=O)n(CCc4ccccc4CO)c(=O)c3cc2c(=O)n1CCc1ccccc1CO`, for which the pEC50 is less than 4.97 and the pIC50 was less than 4.97.

For the compound `CC(C)(C)OC(=O)NC(Cc1ccccc1)C(=S)N1CCCC1` (configuration not stated), the negative-log EC50 (pEC50) was 4.25 and the negative logarithm of the IC50 (pIC50) is 3.85.

As for `CC1(C)C(=O)N(O)C(C)(C)N1N=O`, the pEC50 was less than 3.70 and the pIC50 is less than 3.70.

In the case of `CCOc1ccc(/C=C(\Cl)c2ccc(OC)c(OC)c2)cc1`, the pEC50 is less than 3.70 and the negative logarithm of the IC50 (pIC50) is 3.72.

Consider `Cc1ccccc1-c1c(N)nc(N)nc1C(=O)Nc1nccs1`, for which the pEC50 was less than 4.38 and the pIC50 is less than 4.38.

For the compound `CCn1ncc(N=O)c1N`, the pEC50 was less than 3.70 and the pIC50 was less than 3.70.

(Values after PubChem BioAssay AID179 (DTP/NCI, 2004).)
